Read-outs that look alike come from different tables or passages of the source.

We go through nine compounds from US20250163056A1, “NONMUSCLE MYOSIN II INHIBITORS” (The University of Florida Research Foundation, Inc., priority 2018, published 2025).

One data set concerns rodent behaviors. As to conditions: systemically administered.
Another data set concerns the target Bovine cardiac myosin (Bos taurus (Bovine), UniProt Q9BE39). The data set is described as follows: Cardiac muscle myosin II actin-activated ATPase assay (NADH-coupled). The settings on record: for CMMII/NMII Ratio: cardiac Ki relative to NMII EC50; for Ratio CMMII:NMII Ki/EC50: cardiac myosin II Ki over nonmuscle myosin II EC50. The class given is biochemical. The method, boiled down:
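Inhibitory constants came from a quadratic one-to-one binding fit of 16-point dose-responses (highest final 50 uM, triplicate). Rates were NADH-calibrated fluorescence slopes over 30 min at 25° C, with 300 nM bovine cardiac myosin, 10 μM actin and 1 mM ATP coupled through PK/LDH in pH 7.0 MOPS buffer.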

In the next data set the target is nonmuscle myosin II (Chlorocebus sabaeus, UniProt A0A0D9RDH4). Kind of data set: Cytokinesis cell-based assay of nonmuscle myosin II function in COS7 cells. As to conditions: read-out: NMII EC50. Here is the method:
Cytokinesis is a cell-based assay to assess nonmuscle myosin II function, performed using COS7 cells. The assay is run in a 96 well plate, with 2,000 cells plated per well. Total incubation time is 48 hours, with 24 hours of treatment with the compound of interest. Prior to treatment with small molecules, a two-fold dilution series of compound solutions is prepared in DMSO. Starting concentrations are determined based on compound solubility. Compound solutions are further diluted in DMEM medium to a final DMSO concentration of 2% (50-fold dilution). Subsequently, 100 μl diluted solution is transferred to each well of the plate containing 100 μl of cell culture (achieving 1% final DMSO concentration). All measurements are carried out in triplicate. Cells are stained by fluorescein diacetate (6 μM), a cell viability dye, the cell-permeant Hoescht33342 (10 μM) and the membrane-impermeant propidium iodide (4 μM) to label all nuclei and those belonging to dead cells, respectively. Dye solutions are replaced by fresh media after 10 minutes of incubation. An INCell Analyzer 6000 is used for imaging. […] Cytotoxicity is also assayed and quantified as the ratio of dead nuclei to total nuclei. […] Half maximal effective concentration (EC50) is determined by fitting the 6-point dose-response data to the Hill equation.

The subject of data set [1] is hiPS cardiomyocytes (Cor.4U CMs). Kind of data set: Cardiac safety assay 1: beating parameters of cardiomyocytes (xCELLigence RTCA Cardio). The data set is classed as cell-based, human. The settings on record: hiPS-derived cardiomyocytes. Here is the method: The spontaneous contractions of cardiomyocytes (CMs) is measured label-free in real time using the ACEA xCELLigence RTCA Cardio instrument. All measurements are performed at 37° C. in a cell culture incubator, allowing for spontaneous beating of CMs at physiological conditions. Cor.4U CMs are seeded at 3×10^4 cells/well in 180 μl/well maintenance medium. Prior to seeding, a background impedance measurement (plate plus medium) is performed. The contraction of CMs involves cyclic modulation of cell morphology and adhesion inducing a delta change in impedance. From the cyclic changes in impedance a beating frequency, amplitude and effects on beating pattern can be calculated. Time point “0” (baseline) is recorded 10× for 20 seconds at 1 minute intervals. Thereafter, compounds and control (0.1% DMSO) are added to the wells and effects are measured 30 minutes later. Vehicle control is 0.1% DMSO and positive control is 100 nM isoproterenol. Compounds are tested at 0.1, 0.3, 1.0 and 3.0 uM. Data is collected at 5, 10, 15, 20 and 30 minutes, and 1, 4, 6, 12 and 24 hours post-incubation.

Data set [2] can be described thus: Photostability, percentage remaining undegraded under illumination or in the dark. The settings on record: for Photostability 4 hours: percentage remaining undegraded after 4 hours illumination; for Photostability 24 hours: percentage remaining undegraded after 24 hours illumination; for Photostability Dark (24 h): percentage remaining undegraded in the dark.
The next data set deals with Rabbit skeletal myosin. The data set is described as follows: Skeletal muscle myosin II actin-activated ATPase assay. The settings on record: 20 nM skeletal muscle myosin II; read-out: SKMMII KI. The class given is biochemical. The method, boiled down: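 Inhibitory constants come from a quadratic one-site fit of 16-point, triplicate dose-response data, highest compound concentration 50 uM. Rates are slopes of NADH fluorescence decline over 30 min, coupling ATP turnover of 20 nM rabbit skeletal myosin II with 10 μM actin and 1 mM ATP via PK/LDH, pH 7.0, 25 °C.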

Where [3] appears, read: cardiac muscle myosin II, read-out: CMMII Ki.
Where [4] appears, read: 300 nM cardiac myosin, 10 μM actin, 25° C., read-out: CMMII KI.

Chain of Bovine cardiac myosin (Q9BE39 whole entry): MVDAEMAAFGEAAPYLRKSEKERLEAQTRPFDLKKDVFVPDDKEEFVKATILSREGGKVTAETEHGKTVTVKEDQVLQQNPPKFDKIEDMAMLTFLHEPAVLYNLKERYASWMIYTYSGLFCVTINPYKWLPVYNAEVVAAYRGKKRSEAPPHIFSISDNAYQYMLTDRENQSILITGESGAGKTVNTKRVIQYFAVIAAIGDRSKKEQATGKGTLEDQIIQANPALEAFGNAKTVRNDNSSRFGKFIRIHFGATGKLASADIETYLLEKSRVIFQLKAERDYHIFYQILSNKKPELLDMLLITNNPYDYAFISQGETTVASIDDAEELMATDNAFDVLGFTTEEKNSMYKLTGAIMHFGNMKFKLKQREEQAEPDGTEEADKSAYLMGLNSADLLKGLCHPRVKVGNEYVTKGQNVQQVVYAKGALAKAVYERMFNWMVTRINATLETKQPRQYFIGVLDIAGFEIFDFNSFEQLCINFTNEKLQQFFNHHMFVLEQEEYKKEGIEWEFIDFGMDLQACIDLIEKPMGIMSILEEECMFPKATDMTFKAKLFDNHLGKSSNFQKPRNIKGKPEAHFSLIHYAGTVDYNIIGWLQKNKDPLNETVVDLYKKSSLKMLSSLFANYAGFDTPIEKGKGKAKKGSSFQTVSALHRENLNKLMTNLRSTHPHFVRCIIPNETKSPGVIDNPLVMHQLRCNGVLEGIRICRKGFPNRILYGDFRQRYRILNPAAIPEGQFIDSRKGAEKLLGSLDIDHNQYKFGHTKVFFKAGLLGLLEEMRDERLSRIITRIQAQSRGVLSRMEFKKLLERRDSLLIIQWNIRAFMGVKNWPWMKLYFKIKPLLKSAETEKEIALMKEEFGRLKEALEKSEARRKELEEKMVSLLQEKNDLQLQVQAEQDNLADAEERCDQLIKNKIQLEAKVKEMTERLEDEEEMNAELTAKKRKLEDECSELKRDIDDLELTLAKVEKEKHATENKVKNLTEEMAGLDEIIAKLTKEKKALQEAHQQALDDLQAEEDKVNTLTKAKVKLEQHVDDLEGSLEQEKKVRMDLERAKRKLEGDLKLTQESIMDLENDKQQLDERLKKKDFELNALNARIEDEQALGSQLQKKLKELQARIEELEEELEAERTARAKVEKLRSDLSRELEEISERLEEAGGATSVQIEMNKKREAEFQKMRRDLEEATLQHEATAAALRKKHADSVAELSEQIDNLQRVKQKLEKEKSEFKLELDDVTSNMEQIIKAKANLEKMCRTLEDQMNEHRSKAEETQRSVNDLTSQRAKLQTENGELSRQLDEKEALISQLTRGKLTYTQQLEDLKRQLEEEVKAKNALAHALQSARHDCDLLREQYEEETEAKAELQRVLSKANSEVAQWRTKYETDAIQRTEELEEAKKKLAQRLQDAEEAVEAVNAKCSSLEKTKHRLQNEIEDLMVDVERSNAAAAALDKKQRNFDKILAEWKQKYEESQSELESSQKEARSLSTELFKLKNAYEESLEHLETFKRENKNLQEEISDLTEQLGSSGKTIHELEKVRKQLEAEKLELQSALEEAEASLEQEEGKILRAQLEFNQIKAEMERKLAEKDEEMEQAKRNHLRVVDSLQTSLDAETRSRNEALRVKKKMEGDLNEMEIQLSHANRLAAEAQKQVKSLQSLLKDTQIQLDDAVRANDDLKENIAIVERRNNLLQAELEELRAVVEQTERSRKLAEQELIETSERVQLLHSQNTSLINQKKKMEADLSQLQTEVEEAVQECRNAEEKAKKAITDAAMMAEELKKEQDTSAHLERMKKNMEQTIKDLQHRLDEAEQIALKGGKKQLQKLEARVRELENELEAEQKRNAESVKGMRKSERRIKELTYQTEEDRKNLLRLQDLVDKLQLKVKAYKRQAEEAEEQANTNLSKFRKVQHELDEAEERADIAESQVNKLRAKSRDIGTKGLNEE
Chain of Bovine cardiac myosin (P85100 whole entry partner): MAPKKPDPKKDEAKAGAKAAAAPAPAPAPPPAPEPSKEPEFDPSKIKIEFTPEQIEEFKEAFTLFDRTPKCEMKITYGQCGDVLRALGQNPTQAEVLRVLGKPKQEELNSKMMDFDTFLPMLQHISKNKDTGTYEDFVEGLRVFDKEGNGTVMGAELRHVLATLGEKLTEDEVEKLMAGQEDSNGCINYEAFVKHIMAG
Chain of Bovine cardiac myosin (Q3SZE5 whole entry partner): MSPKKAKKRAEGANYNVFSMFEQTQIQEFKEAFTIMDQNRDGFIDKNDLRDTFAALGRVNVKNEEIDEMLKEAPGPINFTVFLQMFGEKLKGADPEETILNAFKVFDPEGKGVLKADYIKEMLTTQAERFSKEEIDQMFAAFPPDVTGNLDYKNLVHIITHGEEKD
Chain of nonmuscle myosin II (A0A0D9RDH4 1-1976): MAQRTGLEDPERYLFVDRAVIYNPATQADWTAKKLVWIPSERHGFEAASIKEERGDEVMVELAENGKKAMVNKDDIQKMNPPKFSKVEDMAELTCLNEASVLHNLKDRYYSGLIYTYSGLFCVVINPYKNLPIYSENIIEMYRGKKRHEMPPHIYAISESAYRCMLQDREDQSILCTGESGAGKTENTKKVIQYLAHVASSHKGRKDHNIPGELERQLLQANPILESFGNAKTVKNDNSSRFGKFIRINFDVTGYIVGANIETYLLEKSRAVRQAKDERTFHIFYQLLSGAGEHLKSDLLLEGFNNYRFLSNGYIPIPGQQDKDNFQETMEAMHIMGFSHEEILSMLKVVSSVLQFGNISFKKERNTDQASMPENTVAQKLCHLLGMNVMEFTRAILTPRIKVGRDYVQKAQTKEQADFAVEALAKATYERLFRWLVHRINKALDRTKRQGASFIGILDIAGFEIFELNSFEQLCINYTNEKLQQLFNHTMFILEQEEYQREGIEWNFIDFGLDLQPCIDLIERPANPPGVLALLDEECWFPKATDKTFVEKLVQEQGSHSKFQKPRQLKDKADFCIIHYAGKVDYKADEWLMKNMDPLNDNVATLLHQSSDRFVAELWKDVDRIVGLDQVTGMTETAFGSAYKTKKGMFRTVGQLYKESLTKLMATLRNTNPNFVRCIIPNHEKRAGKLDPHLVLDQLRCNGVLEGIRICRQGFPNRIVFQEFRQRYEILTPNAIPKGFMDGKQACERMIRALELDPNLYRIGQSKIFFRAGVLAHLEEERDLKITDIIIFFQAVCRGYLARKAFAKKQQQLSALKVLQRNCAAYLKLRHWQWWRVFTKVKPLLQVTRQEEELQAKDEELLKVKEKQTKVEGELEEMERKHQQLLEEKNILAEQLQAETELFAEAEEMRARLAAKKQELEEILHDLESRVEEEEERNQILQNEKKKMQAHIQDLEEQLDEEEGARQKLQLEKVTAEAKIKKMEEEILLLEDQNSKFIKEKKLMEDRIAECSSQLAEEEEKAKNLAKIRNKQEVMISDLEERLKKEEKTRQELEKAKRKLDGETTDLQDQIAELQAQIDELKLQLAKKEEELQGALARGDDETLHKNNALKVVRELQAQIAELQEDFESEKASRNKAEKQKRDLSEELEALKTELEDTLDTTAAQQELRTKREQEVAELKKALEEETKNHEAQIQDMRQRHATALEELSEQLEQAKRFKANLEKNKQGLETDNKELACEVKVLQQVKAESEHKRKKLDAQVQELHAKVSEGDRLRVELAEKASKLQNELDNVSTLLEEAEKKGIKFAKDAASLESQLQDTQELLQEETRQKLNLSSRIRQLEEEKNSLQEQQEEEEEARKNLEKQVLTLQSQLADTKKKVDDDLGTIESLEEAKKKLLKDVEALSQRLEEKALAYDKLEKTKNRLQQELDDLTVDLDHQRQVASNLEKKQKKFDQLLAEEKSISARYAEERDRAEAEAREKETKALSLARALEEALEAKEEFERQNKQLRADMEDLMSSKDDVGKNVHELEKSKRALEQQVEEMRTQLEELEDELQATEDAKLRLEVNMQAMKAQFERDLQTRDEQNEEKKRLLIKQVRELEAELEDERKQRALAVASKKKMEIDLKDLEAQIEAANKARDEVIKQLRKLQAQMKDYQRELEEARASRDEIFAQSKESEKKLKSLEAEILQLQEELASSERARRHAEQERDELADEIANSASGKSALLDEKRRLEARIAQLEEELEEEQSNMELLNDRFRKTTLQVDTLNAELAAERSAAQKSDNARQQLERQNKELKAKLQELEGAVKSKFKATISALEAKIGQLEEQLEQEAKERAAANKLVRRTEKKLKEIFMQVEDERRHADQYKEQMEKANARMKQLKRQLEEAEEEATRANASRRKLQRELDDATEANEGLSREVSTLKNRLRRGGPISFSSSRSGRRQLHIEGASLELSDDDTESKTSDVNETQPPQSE

Turning to `Cc1ccc2c(c1)C(=O)C1(O)CCN(c3ccccc3)C1=N2` (racemic) [racemic Blebb], the “effect in a broad panel of rodent behaviors” value in the data set with rodent behaviors is recorded as “no effect”.
Take `O=C1c2cc(Cl)ccc2N=C2N(c3ccccc3)CC[C@@]12O` [BPN-0025002]: on Bovine cardiac myosin, the “CMMII/NMII Ratio” value came out at 0.76. The Ki at Bovine cardiac myosin (setting [3]) was determined as 1.97 µM. For the same compound, the EC50 at nonmuscle myosin II stood at 2.6 µM. Also, in data set [1], the “Change in amplitude at 1 uM @ 15 min” value is listed as −38.9 ± 2.4%.
`Cc1ccc2c(c1)C(=O)[C@]1(O)CCN(c3cccc(Cl)c3)C1=N2` [BPN-0025059]: in data set [2], the “Photostability 4 hours” value turned out to be 96.1%, the “Photostability 24 hours” value is 48.6% and the “Photostability Dark (24 h)” value is listed as over 99%. In addition, on Rabbit skeletal myosin, the Ki worked out at 22 µM. For the same compound, on Bovine cardiac myosin (setting [4]), the Ki came to 120 µM. Also, at Bovine cardiac myosin, the “CMMII/NMII Ratio” value was determined as 9.25 and the “Ratio CMMII:NMII Ki/EC50” value came out at 23.5. In addition, the Ki at Bovine cardiac myosin (setting [3]) was 47.2 µM. Further, in data set [1] (0.1 uM-1.0 uM), the “Qualitative impact on contractility (e.g. Full = Complete inhibition of contraction)” value is listed as 0.1 uM-1.0 uM: No effect; 3.0 uM:. Besides, in data set [1], the “Change in amplitude at 1 uM @ 15 min” value is reported as “+1.1 ± 0.1%”. The “Qualitative impact on contractility (e.g. Full = Complete inhibition of contraction)” value in data set [1] (3.0 uM) is on record as “Small effect”.
As to `Cc1cccc(N2CC[C@@]3(O)C(=O)c4cc(C)ccc4N=C23)c1` [BPN-0025100], the “Photostability 4 hours” value in data set [2] was 82.8%. Also, the “Photostability 24 hours” value in data set [2] was 4.7%. The “Photostability Dark (24 h)” value in data set [2] is recorded as 99.0%. Further, the Ki came out at 9.7 µM on Rabbit skeletal myosin, 48 µM at Bovine cardiac myosin (setting [4]) and 26.3 µM on Bovine cardiac myosin (setting [3]). The “CMMII/NMII Ratio” value at Bovine cardiac myosin is 3.51. The “Ratio CMMII:NMII Ki/EC50” value on Bovine cardiac myosin was determined as 6.4. The figures for the “Qualitative impact on contractility (e.g. Full = Complete inhibition of contraction)” value in data set [1] (0.1 uM-1.0 uM) and in data set [1] (3.0 uM) were 0.1 uM-1.0 uM: No effect; 3.0 uM: and “Small effect”, respectively. In addition, in data set [1], the “Change in amplitude at 1 uM @ 15 min” value is −7.8 ± 1.3%.
`Cc1cc(N2CC[C@@]3(O)C(=O)c4c(sc(C)c4C)NC23)ccc1C#N` (stereo partly drawn) [BPN-0026886]: at Rabbit skeletal myosin, the Ki amounted to 4.2 µM. For the same compound, the Ki on Bovine cardiac myosin (setting [4]) is 19 µM. The “Ratio CMMII:NMII Ki/EC50” value at Bovine cardiac myosin is given as 7.0. The “Photostability 4 hours” value (4 h) is recorded as over 99%. Under “24 h”, the “Photostability 24 hours” value came to 98.5% and the “Photostability Dark (24 h)” value is given as over 99%.
In the case of `Cc1cc2c(cc1C)C(=O)[C@]1(O)CCN(c3ccc4c(c3)NCCS4)C1=N2` [BPN-0028922], in data set [2], the “Photostability 4 hours” value is reported as 86.1%, the “Photostability 24 hours” value was 27.7% and the “Photostability Dark (24 h)” value came to 94.8%. Moreover, on Rabbit skeletal myosin, the Ki stood at 0.77 µM. In addition, the Ki at Bovine cardiac myosin (setting [4]) came to 9.7 µM. On Bovine cardiac myosin, the “Ratio CMMII:NMII Ki/EC50” value was found to be 8.8.
`Cc1cc2c(cc1C)C(=O)[C@]1(O)CCN(c3ccc4c(c3)CCCC4)C1=N2` [BPN-0028923]: in data set [2], the “Photostability 4 hours” value is reported as 77.5%, the “Photostability 24 hours” value was found to be 1% and the “Photostability Dark (24 h)” value came to 98.1%. The Ki on Rabbit skeletal myosin amounted to 6 µM. Further, the Ki at Bovine cardiac myosin (setting [4]) worked out at 30 µM. Also, at Bovine cardiac myosin, the “Ratio CMMII:NMII Ki/EC50” value is 8.6.
Regarding `Cc1cc2c(cc1C)C(=O)[C@]1(O)CCN(c3ccc4c(c3)OCCC4)C1=N2` [BPN-0028924], in data set [2], the “Photostability 4 hours” value stood at 44.7%, the “Photostability 24 hours” value was under 1% and the “Photostability Dark (24 h)” value is 97.7%. In addition, the Ki on Rabbit skeletal myosin stood at 2.6 µM. For the same compound, on Bovine cardiac myosin (setting [4]), the Ki stood at 20 µM. Further, on Bovine cardiac myosin, the “Ratio CMMII:NMII Ki/EC50” value is listed as 11.8.
As to `Cc1cc2c(cc1C)C(=O)[C@]1(O)CCN(c3ccc4c(c3)NCCC4)C1=N2` [BPN-0028925], in data set [2], the “Photostability 4 hours” value worked out at 85.9%, the “Photostability 24 hours” value was determined as 24.7% and the “Photostability Dark (24 h)” value came to 93.7%. The Ki at Rabbit skeletal myosin stood at 0.7 µM. For the same compound, the Ki on Bovine cardiac myosin (setting [4]) is 5.8 µM. Moreover, the “Ratio CMMII:NMII Ki/EC50” value at Bovine cardiac myosin is reported as 7.3.

By Ki is commonly meant a measure of affinity in units of concentration, obtained from inhibition or displacement. In general, EC50 refers to the concentration giving half of the maximal effect.
